From paper PMC7680447 (Glycoconjugate journal, 2020)
Several values for one entry are separate records, joined by “and”; a condition that tells them apart may be missing. Identical values can stand only once. Entries after “also recorded” stand apart in the source; their conditions may differ. Like-named read-outs stand apart in the source and are kept apart here.

B1: Asialofetuin (ASF) from fetal calf serum Type 1 (natural protein, bovine (from fetal calf serum), UniProt P12763 19-359, looked up)
chain: IPLDPVAGYKEPACDDPDTEQAALAAVDYINKHLPRGYKHTLNQIDSVKVWPRRPTGEVYDIEIDTLETTCHVLDPTPLANCSVRQQTQHAVEGDCDIHVLKQDGQFSVLFTKCDSSPDSAEDVRKLCPDCPLLAPLNDSRVVHAVEVALATFNAESNGSYLQLVEISRAQFVPLPVSVSVEFAVAATDCIAKEVVDPTKCNLLAEKQYGFCKGSVIQKALGGEDVRVTCTLFQTQPVIPQPQPDGAEAEAPSAVPDAAGPTPSAAGPPVASVVVGPSVVAVPLPLHRAHYDLRHTFSGVASVESSSGEAFHVGKTPIVGQPSIPGGPVRLCPGRIRYFKI
modifications: desialylated glycoprotein with three triantennary LacNAc presentations (glycan valency of nine)

Legend:
Gal-1 (Galectin-1) [1] = molecular target: T1, Gal-1 (Galectin-1) (Homo sapiens, UniProt P09382); experiment: Isothermal titration calorimetry, binding to Gal-1; details: for −TΔS / −ΔH / −ΔG / Gal-1 binding affinity in words: phosphate buffer pH 7.2; for n-value: rounded/summary values in text, Gal-1 treated as a dimer for concentration input; for Kd in HEPES buffer (values not given): HEPES buffer containing 0.05% Tween-20, control titrations; for Gal-1 binding affinity in words: ITC in solution
his-tagged Gal-1 = his-tagged Gal-1 (Homo sapiens, UniProt P09382); experiment: Isothermal titration calorimetry, binding to his-tagged Gal-1; details: for n (binding stoichiometry): lectin treated as a dimer; for agreement of titrations: his-tagged Gal-1 vs Gal-1 and previously reported value, ref [40]
Gal-3 (Galectin-3) [2] = molecular target: T2, Gal-3 (Galectin-3) (Homo sapiens, UniProt P17931); experiment: Binding to Gal-3; details: Gal-3 affinity greater than Gal-1 (Table 1 and Fig. S15)
Gal-1 (Galectin-1) [3] = molecular target: T1, Gal-1 (Galectin-1); details: in solution, isothermal titration calorimetry, ref [16]; cited from earlier work
Gal-1 = details: glycan microarray format, ref [29]; cited from earlier work
Gal-3 (Galectin-3) [4] = molecular target: T2, Gal-3 (Galectin-3); details: ref [34]; cited from earlier work
[5] = tested on: Gal-1 CRD in Gal-1/Gal-3 heterodimers; details: sequential model, at full loading, ref [48]; cited from earlier work
Gal-1, His52 mutant = details: mutagenesis of His52 enabled binding of TF; ref [16]; cited from earlier work
[6] = molecular target: histidine-tagged Galectin-1 (human, UniProt P09382 1-135); experiment: ITC
Galectin-3 = Galectin-3 (UniProt P17931 1-250); experiment: ITC
Galectin-1 = Galectin-1 (human, UniProt P09382 1-135); experiment: ITC
[7] = ITC, 25 °C, one-set-of-sites model
[8] = ITC, 25 °C, pH 7.2, ASF at 0.525 mM
[9] = ITC, PEAQ-ITC, 25 °C, 20 mM phosphate, 10 mM NaCl, 10 mM β-mercaptoethanol, pH 7.2, one-set-of-sites model, [ligand] mM/[cell] μM: LacNAc 6.0/140, lactose 8.0/80, ASF 218/61 (so in the source), TF and Thr-TF 6.0/50
[10] = second ASF titration: 0.700 mM ASF, 200 μM His-tag-Gal-1, ITC, 25 °C, pH 7.2

histidine-tagged Galectin-1, sequence (P09382 whole entry): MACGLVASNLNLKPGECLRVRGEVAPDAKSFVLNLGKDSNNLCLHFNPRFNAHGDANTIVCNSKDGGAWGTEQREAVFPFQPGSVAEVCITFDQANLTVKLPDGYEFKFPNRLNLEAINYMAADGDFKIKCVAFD
his-tagged Gal-1, sequence (P09382 whole entry): as above
T1 sequence (P09382 whole entry): as above
T2 sequence (P17931 whole entry): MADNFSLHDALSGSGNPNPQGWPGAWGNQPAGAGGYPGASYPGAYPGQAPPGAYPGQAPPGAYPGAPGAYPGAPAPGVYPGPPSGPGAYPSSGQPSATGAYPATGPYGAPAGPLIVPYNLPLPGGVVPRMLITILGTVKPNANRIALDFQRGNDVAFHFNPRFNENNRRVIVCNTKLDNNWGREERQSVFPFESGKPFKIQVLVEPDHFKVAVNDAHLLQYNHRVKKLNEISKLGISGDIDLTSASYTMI
Galectin-1, sequence (P09382 whole entry): as the sequence (P09382 whole entry) above
Galectin-3, sequence (P17931 whole entry): as the sequence (P17931 whole entry) above

Molecule | −TΔS (Gal-1 (Galectin-1) [1]; [7]) [kcal/mol] | −ΔH (Gal-1 (Galectin-1) [1]; [7]) | n-value (Gal-1 (Galectin-1) [1]) | −TΔS (his-tagged Gal-1; [8]) [kcal/mol] | −ΔH (his-tagged Gal-1; [8]) | n (binding stoichiometry) (his-tagged Gal-1; [8]) | agreement of titrations (his-tagged Gal-1) | Kd in HEPES buffer (values not given) (Gal-1 (Galectin-1) [1]) | −ΔG (Gal-1 (Galectin-1) [1]; [7]) [kcal/mol] | Ka (Gal-1 (Galectin-1) [1]; [9]) [M⁻¹] | Kd (Gal-1 (Galectin-1) [1]; [9]) [mM] | −ΔG (his-tagged Gal-1; [8]) [kcal/mol] | Gal-1 binding affinity in words (Gal-1 (Galectin-1) [1]; 25 °C) | also measured
OC[C@H]1O[C@@H](O[C@H]2[C@H](O)[C@@H](O)C(O)O[C@@H]2CO)[C@H](O)[C@@H](O)[C@H]1O (mixture of isomers) [Lactose, lactose] | 7.09 | 11.9 (± 0.906) kcal/mol | 2 | 4.04 | 8.67 (± 1.43) kcal/mol | 2.05 | in agreement with values obtained for Gal-1 and previously reported value | – | – | – | – | – | – | –
CC(=O)N[C@H]1C(O)O[C@H](CO)[C@@H](O[C@@H]2O[C@H](CO)[C@H](O)[C@H](O)[C@H]2O)[C@@H]1O (some centres unmarked) [LacNAc, N-Acetyllactosamine] | 4.40 | 9.97 (± 0.151) kcal/mol | 2 | 4.27 | 9.79 (± 0.206) kcal/mol | 2.02 | in agreement with values obtained for Gal-1 and previously reported value | mirrored the values obtained in phosphate buffer | 5.57 | 12000 | 0.083 | 5.53 | – | Gal-3 affinity relative to Gal-1 (Gal-3 (Galectin-3) [2]): ~2 x
CC(=O)N[C@@H](C=O)[C@@H](O[C@@H]1O[C@H](CO)[C@H](O)[C@H](O)[C@H]1O)[C@@H](O)[C@H](O)CO [TF, 2-Acetamido-2-deoxy-3-O-β-D-galactopyranosyl-D-galactose] | 13.4 | 16.7 (± 0.221) kcal/mol | – | – | – | – | – | – | 3.30 | 260 | – | – | – | Gal-1 recognition of TF antigen by ITC (Bian et al.) (Gal-1 (Galectin-1) [3]): failed to observe Gal-1 recognition of the TF antigen in solution beyond millimolar affinity; Gal-1 binding to TF antigen, glycan microarray (Gal-1): did not bind significantly; Kd (Gal-1 (Galectin-1) [1]): 3.8 mM; Gal-1 binding affinity in words (Gal-1 (Galectin-1) [1]; 25 °C, listed as TF disaccharide): binding by Gal-1 in mM range; also recorded: failed to recognize TF disaccharide and Thr-TF (TF antigen) beyond the millimolar affinity; Thermodynamic driving force of Gal-3 binding (Gal-3 (Galectin-3) [4]): enthalpy-driven; Affinity of the Gal-1 CRD for TF [5]: high mM range; Affinity of TF for His52-mutated Gal-1 (Gal-1, His52 mutant): high μM affinity
CC(=O)NC1C(OC(C)C(N)C(=O)O)OC(CO)C(O)C1OC1OC(CO)C(O)C(O)C1O (centres unmarked) [Thr-TF, Gal1–3βGalNAcα1-O-Thr] | 13.3 | 16.6 (± 0.269) kcal/mol | – | – | – | – | – | – | 3.28 | 250 | 3.96 | – | failed to recognize TF disaccharide and Thr-TF (TF antigen) beyond the millimolar affinity | Gal-1 binding affinity in words (Gal-1 (Galectin-1) [1]; 25 °C, listed as Thr-TF antigen): binding by Gal-1 in mM range
ASF: Asialofetuin from fetal calf serum Type 1, a glycoprotein with three triantennary LacNAc presentations | 58.2 | – | – | 50.1 | – | – | in agreement with values obtained for Gal-1 and previously reported value | mirrored the values obtained in phosphate buffer | 7.15 | 174000 | 0.00576 | 7.37 | remained in the uM range; also recorded: low micromolar affinity | Ka (his-tagged Gal-1; [10]): 340100 M⁻¹; Kd (his-tagged Gal-1; [10]): 2.94 µM; −TΔS (his-tagged Gal-1; [10]): 49.6 kcal/mol; −ΔG (his-tagged Gal-1; [10]): 7.55 kcal/mol
B1 | – | – | – | – | – | – | – | – | – | – | – | – | – | -dH [6]: 57.1 kcal/mol and 57.5 kcal/mol; stoichiometry N [6]: 0.274 and 0.283; fold affinity for ASF against Gal-1 (Galectin-3): ~12 fold; -dH (Galectin-1): 65.4 ± 1.42 kcal/mol; stoichiometry N (Galectin-1): 0.222
